Reference: ChEMBL document CHEMBL5393453, “Compositions and methods of using the same for treatment of neurodegenerative and mitochondrial disease” (2021)

Columns and labels:
[1] = Cytotoxicity against human HeLa cells expressing YFP parkin treated with FCCP/ oligomycin assessed as highest safety dose by DAPI staining analysis; format: toxicity, cell-based; settings: read-out: Activity
[2] = Cytotoxicity against human HeLa cells expressing YFP parkin assessed as highest safety dose by DAPI staining analysis; format: toxicity, cell-based; settings: read-out: Activity

SMILES: C[C@H]1CN([C@@H]2COc3cc(F)ccc3[C@H]2Nc2ncnc3[nH]c(C4CC4)cc23)CCO1
- MNTC [1]: 7400 nM
- MNTC [2]: 25 µM

SMILES: CO[C@H]1CCN([C@H]2COc3ccccc3[C@@H]2Nc2ncnc3[nH]c(C4CC4)cc23)C1
- MNTC [1]: 1100 nM
- MNTC [2]: 25 µM

SMILES: C[C@@H]1CN([C@H]2COc3ccccc3[C@@H]2Nc2ncnc3[nH]c(C(F)(F)F)cc23)C[C@H](C)O1 (single isomer, unassigned)
- MNTC [1]: 7100 nM
- MNTC [2]: 25 µM

SMILES: C[C@@H]1CN([C@@H]2COc3cc(F)ccc3[C@H]2Nc2ncnc3[nH]c(C(F)(F)F)cc23)C[C@H](C)O1
- MNTC [1]: 2200 nM
- MNTC [2]: 25 µM

SMILES: Fc1ccc2c(c1)CC[C@H](N1C[C@H]3COC[C@@H]3C1)[C@H]2Nc1ncnc2[nH]c(C3CC3)cc12
- MNTC [1]: 11700 nM
- MNTC [2]: 25 µM

SMILES: C[C@@H]1CN([C@@H]2COc3cc(F)ccc3[C@H]2Nc2ncnc3[nH]c(C4CC4)cc23)C[C@H](C)O1
- MNTC [1]: 1200 nM
- MNTC [2]: 25 µM

SMILES: Fc1ccc2c(c1)CC[C@H](N1C[C@H]3COC[C@H]3C1)[C@H]2Nc1ncnc2[nH]c(C3CC3)cc12
- MNTC [1]: 10300 nM
- MNTC [2]: 25 µM

SMILES: Fc1ccc2c(c1)OC[C@H](N1C[C@@H]3COC[C@H]3C1)[C@H]2Nc1ncnc2[nH]c(C3CC3)cc12 (single isomer, unassigned)
- MNTC [1]: 13900 nM
- MNTC [2]: 25 µM

SMILES: C[C@@H]1CN([C@H]2CCc3ccccc3[C@@H]2Nc2ncnc3[nH]c(C4CC4)cc23)CCO1 (single isomer, unassigned)
- MNTC [1]: 1300 nM
- MNTC [2]: 25 µM

SMILES: FC(F)(F)c1cc2c(N[C@H]3c4ccccc4OC[C@@H]3N3C[C@H]4COC[C@H]4C3)ncnc2[nH]1
- MNTC [1]: 25000 nM
- MNTC [2]: 25 µM

SMILES: C[C@@H]1CN([C@H]2COc3cc(F)ccc3[C@@H]2Nc2ncnc3[nH]c(C4CC4)cc23)CCO1
- MNTC [1]: 2000 nM
- MNTC [2]: 16.7 µM

SMILES: COC[C@H]1CCN([C@H]2COc3ccccc3[C@@H]2Nc2ncnc3[nH]c(C4CC4)cc23)C1
- MNTC [1]: 3600 nM
- MNTC [2]: 25 µM

SMILES: COC[C@@H]1CCN(C2COc3ccccc3C2Nc2ncnc3[nH]c(C4CC4)cc23)C1 (single isomer, unassigned)
- MNTC [1]: 1400 nM
- MNTC [2]: 25 µM

SMILES: C[C@@H]1CN([C@@H]2COc3ccccc3[C@H]2Nc2ncnc3[nH]c(C(F)(F)F)cc23)C[C@H](C)O1
- MNTC [1]: 2300 nM
- MNTC [2]: 25 µM

SMILES: Fc1ccc2c(c1)OC[C@@H](N1C[C@H]3COC[C@H]3C1)[C@@H]2Nc1ncnc2[nH]c(C3CC3)cc12
- MNTC [1]: 16000 nM
- MNTC [2]: 25 µM

SMILES: C[C@@H]1CN([C@@H]2COc3ccccc3[C@H]2Nc2ncnc3[nH]c(C4CC4)cc23)CCO1
- MNTC [1]: 1700 nM
- MNTC [2]: 25 µM

SMILES: C[C@H]1CN([C@H]2COc3ccccc3[C@@H]2Nc2ncnc3[nH]c(C4CC4)cc23)CCO1
- MNTC [1]: 15100 nM
- MNTC [2]: 25 µM

SMILES: c1ccc2c(c1)CC[C@H](C1CCOCC1)[C@H]2Nc1ncnc2[nH]c(C3CC3)cc12 (single isomer, unassigned)
- MNTC [1]: 2100 nM
- MNTC [2]: 25 µM

SMILES: CO[C@H]1CCN([C@H]2COc3ccccc3[C@@H]2Nc2ncnc3[nH]c(C(F)(F)F)cc23)C1
- MNTC [1]: 1100 nM
- MNTC [2]: 25 µM

SMILES: c1ccc2c(c1)CC[C@H](N1CCOCC1)[C@H]2Nc1ncnc2[nH]c(C3CC3)cc12
- MNTC [1]: 2800 nM
- MNTC [2]: 25 µM

SMILES: C[C@@H]1CN([C@@H]2COc3ccccc3[C@H]2Nc2ncnc3[nH]c(C(F)(F)F)cc23)CCO1
- MNTC [1]: 9700 nM
- MNTC [2]: 25 µM

SMILES: C[C@@H]1CN([C@H]2COc3cc(F)ccc3[C@@H]2Nc2ncnc3[nH]c(C4CC4)cc23)C[C@H](C)O1 (single isomer, unassigned)
- MNTC [1]: 2000 nM
- MNTC [2]: 25 µM

SMILES: FC(F)(F)c1cc2c(N[C@@H]3c4ccccc4CC[C@H]3N3C[C@H]4COC[C@H]4C3)ncnc2[nH]1 (single isomer, unassigned)
- MNTC [1]: 9100 nM
- MNTC [2]: 25 µM

SMILES: C[C@H]1COCCN1[C@@H]1CCc2ccccc2[C@H]1Nc1ncnc2[nH]c(C(F)(F)F)cc12 (single isomer, unassigned)
- MNTC [2]: 25 µM

SMILES: C[C@H]1CN([C@@H]2COc3cc(F)ccc3[C@H]2Nc2ncnc3[nH]c(C(F)(F)F)cc23)CCO1
- MNTC [2]: 25 µM

SMILES: Fc1ccc2c(c1)OC[C@H](N1C[C@H]3COC[C@H]3C1)[C@H]2Nc1ncnc2[nH]c(C(F)(F)F)cc12 (single isomer, unassigned)
- MNTC [2]: 25 µM

SMILES: OC(C1CCOCC1)[C@H]1COc2ccccc2[C@@H]1Nc1ncnc2[nH]c(C(F)(F)F)cc12 (stereo not given in full)
- MNTC [2]: 25 µM

SMILES: CN1CCN([C@@H]2CCc3ccccc3[C@H]2Nc2ncnc3[nH]c(C(F)(F)F)cc23)CC1 (single isomer, unassigned)
- MNTC [2]: 25 µM

SMILES: c1ccc2c(c1)OC[C@H](C1CCOCC1)[C@@H]2Nc1ncnc2[nH]c(C3CC3)cc12
- MNTC [2]: 25 µM

SMILES: COC[C@H]1CCCN1[C@H]1COc2ccccc2[C@@H]1Nc1ncnc2[nH]c(C(F)(F)F)cc12 (single isomer, unassigned)
- MNTC [2]: 25 µM

SMILES: CO[C@@H]1CCN([C@@H]2COc3ccccc3[C@H]2Nc2ncnc3[nH]c(C(F)(F)F)cc23)C1
- MNTC [2]: 25 µM

SMILES: C[S@@](=N)(=O)C1CN(C2COc3ccccc3C2Nc2ncnc3[nH]c(C(F)(F)F)cc23)C1 (single isomer, unassigned)
- MNTC [2]: 25 µM

SMILES: C[C@H]1CN([C@H]2COc3cc(F)ccc3[C@@H]2Nc2ncnc3[nH]c(C(F)(F)F)cc23)CCO1
- MNTC [2]: 25 µM

SMILES: OC[C@@H]1CN([C@H]2COc3ccccc3[C@@H]2Nc2ncnc3[nH]c(C(F)(F)F)cc23)CCO1 (single isomer, unassigned)
- MNTC [2]: 25 µM

SMILES: Fc1ccc2c(c1)OC[C@H](N1C[C@H]3COC[C@H]3C1)[C@H]2Nc1ncnc2[nH]c(C3CC3)cc12 (single isomer, unassigned)
- MNTC [2]: 25 µM

SMILES: c1ccc2c(c1)CC[C@@H](C1CCOCC1)[C@H]2Nc1ncnc2[nH]c(C3CC3)cc12
- MNTC [2]: 25 µM

SMILES: CS(=N)(=O)C1CN(C2COc3ccccc3C2Nc2ncnc3[nH]c(C(F)(F)F)cc23)C1 (stereo not given)
- MNTC [2]: 25 µM

SMILES: FC(F)(F)c1cc2c(N[C@H]3c4ccccc4OC[C@H]3C3CCOCC3)ncnc2[nH]1
- MNTC [2]: 8.3 µM

SMILES: FC(F)(F)c1cc2c(N[C@@H]3c4ccccc4OC[C@H]3N3CCOCC3)ncnc2[nH]1
- MNTC [2]: 25 µM

SMILES: OC(C1CCOCC1)C1COc2ccccc2C1Nc1ncnc2[nH]c(C(F)(F)F)cc12 (single isomer, unassigned)
- MNTC [2]: 25 µM

SMILES: C[C@@H]1CN([C@@H]2CCc3ccccc3[C@H]2Nc2ncnc3[nH]c(C4CC4)cc23)CCO1 (single isomer, unassigned)
- MNTC [2]: 25 µM

SMILES: FC(F)(F)c1cc2c(N[C@H]3c4ccccc4CC[C@@H]3C3CCOCC3)ncnc2[nH]1 (single isomer, unassigned)
- MNTC [2]: 25 µM

SMILES: C[C@@H]1CN([C@@H]2COc3cc(F)ccc3[C@H]2Nc2ncnc3[nH]c(C4CC4)cc23)CCO1
- MNTC [2]: 25 µM

SMILES: C[C@@H]1CN([C@H]2COc3ccccc3[C@@H]2Nc2ncnc3[nH]c(C(F)(F)F)cc23)CCO1
- MNTC [2]: 25 µM

SMILES: C[C@@H]1CN([C@@H]2CCc3ccccc3[C@H]2Nc2ncnc3[nH]c(C4CC4)cc23)C[C@H](C)O1 (single isomer, unassigned)
- MNTC [2]: 25 µM

SMILES: FC(F)(F)c1cc2c(N[C@H]3c4ccccc4OC[C@@H]3N3CCOCC3)ncnc2[nH]1 (single isomer, unassigned)
- MNTC [2]: 25 µM

SMILES: OC[C@H]1CN([C@H]2COc3ccccc3[C@@H]2Nc2ncnc3[nH]c(C(F)(F)F)cc23)CCO1 (single isomer, unassigned)
- MNTC [2]: 25 µM
